Assay results reported in patent US20250051278A1, “[…]” (Reunion Neuroscience, Inc., priority 2021, published 2025).

Tests used:
[1] = Subjective effects in human volunteers (standardized questionnaires); assay type: in vivo
Protocol: The compound from example 6 (N,N diisopropyltryptamine-4-glutarate) is administered to human volunteers by subcutaneous injection of a sterile solution (1 mg/ml) at a dosage of 0.1-0.6 mg/kg. Blood samples are taken at 5, 15, 30, 45, 60, 120, 240 and 480 min and 24 h. Samples are analyzed by LCMS for drug and prodrug. Subjective effects are measured using standardized questionnaires.
The compound from example 2 (4-hemisuccinate of 4-OH-DiPT) is administered to human volunteers by oral ingestion of a tablet containing 50 mg of the prodrug. Blood samples are taken at 5, 15, 30, 45, 60, 120, 240 and 480 min and 24 h. Samples are analyzed by LCMS for drug and prodrug. Subjective effects are measured using standardized questionnaires.

[2] = Head Twitch Response (HTR) or Wet Dog Shakes (WDS) by visual observation; assay type: in vivo; conditions: rats; highest intensity of head twitch at the Tmax of the PK profile
Protocol: In some cases, Head Twitch Response (HTR) or Wet Dog Shakes (WDS) were recorded by visual observation and counting of the relevant muscle twitches.

Solubility in water = assay type: physicochemical; conditions: thermodynamic from solid; HCl salt solid dissolved in water
Protocol: The structure was confirmed by NMR. Purity was determined by HPLC (>97%). The solid was resuspended in 1M HCl-dioxane to form the HCl salt which was filtered, washed with ether and dried. Yield (>95%, purity >95%; DSC endotherm 174C). The solid could be dissolved in water up to 50 mg/ml and lyophilized to form a white “cake”.

[3] = Prodrug hydrolysis in mouse plasma at 37° C; assay type: in vitro ADME; conditions: 1.0 ug/mL
Protocol: (§1) Pooled mixed gender human plasma (2 ml), mouse plasma, rat plasma and dog plasma were equilibrated at 37° C. The compound of example 9 was added so as to achieve a concentration of 1.0 ug/mL. Aliquots (50 uL) of the mixture were withdrawn at timed intervals (0, 0.004, 0.5, 1, 2 and 4 hours) and quenched with 200 μL of methanol/acetonitrile (1:1). The samples were vortexed and stored at −80° C. until analysis. Assays were done in triplicate. Control samples were done in phosphate buffered saline (PBS, pH 7.4) and simulated gastric fluid (SGF, pH 2). Analysis of samples as performed by HPLC-MS to determine the amounts of prodrug and drug in each sample tested. Table 1 provides the mean concentrations of prodrug remaining at different time points of the experiment.

[4] = Control hydrolysis in phosphate buffered saline (PBS, pH 7.4); assay type: physicochemical; conditions: PBS (pH7)
Protocol: as §1

[5] = Use in treatment of a human patient suffering depression; assay type: in vivo; conditions: i.m. or s.c. injection ca. 25 mg or oral ca. 50-200 mg
Protocol: The compound of example 6 (N,N diisopropyltryptamine-4-glutarate) is administered by i.m. or s.c. injection (ca. 25 mg; 0.4-0.5 mg/kg) to a human patient suffering depression, or by oral administration (ca. 50-200 mg; 0.8-3.2 mg/kg) with tablets. In another example of use, the compound of example 6 (4-hemiglutarate of 4-OH-DiPT) is similarly administered. Prior to the dosing session, the patient is qualified for the experience by measurement of depression scores, screened for exclusions (e.g. history of psychoses, unfavorable heart condition, pregnancy) and finally, the patient is encouraged to formulate an intent for the dosing session. Dosing is performed in a quiet clinic setting with the patient resting comfortably in an inclined, but unrestrained, position to avoid falls. The patients' eyes are covered, and music is applied. The drug is administered. After 4 h, the patient reports no longer feeling the effects of the drug and is asked to sit up while under supervision. Feeling normal, the patient is allowed to stand (supervised) and feeling in control, is allowed to move around. One hour later, the patient is discharged. Later by 24 h, the patient returns to the clinic to meet with a psychotherapist to recount the session. The patient records a depression score via questionnaire and is again discharged. […]

[6] = Prodrug hydrolysis in pooled mixed gender human plasma at 37° C; assay type: in vitro ADME; conditions: 1.0 ug/mL
Protocol: as §1

[7] = Prodrug hydrolysis in rat plasma at 37° C; assay type: in vitro ADME; conditions: 1.0 ug/mL
Protocol: as §1

[8] = Control hydrolysis in simulated gastric fluid (SGF, pH 2); assay type: physicochemical; conditions: SGF (pH2)
Protocol: as §1

[9] = Prodrug hydrolysis in dog plasma at 37° C; assay type: in vitro ADME; conditions: 1.0 ug/mL
Protocol: as §1

[10] = Pharmacokinetics in rats (intravenous and subcutaneous injection); assay type: in vivo; conditions: i.v. and s.c., 1.4-2 mg/kg, LCMS, rapidly converted to the active form
Protocol: The compound from example 9 was administered to rats by injection (intravenous and subcutaneous) with a sterile solution (2 mg/ml) at a rate of 1.4-2 mg/kg. Blood samples were taken at 15, 30, 45, 60, 120, 240 min and 360 min and analyzed by LCMS for drug and prodrug. PK profile for the prodrug and active species were obtained and relative bioavailability was determined for each of the routes of administration.
Pharmacokinetics of 1.34 mg/ml 4-HO-DiPT HCl administered by intravenous or subcutaneous injection were performed in parallel under identical conditions as above. […] Immediately obvious is the increased variability with the active species when administered s.c. and intravenous administrations.

Q: For `CC(C)N(CCc1c[nH]c2cccc(OC(=O)CCC(=O)O)c12)C(C)C` [Example 2, N,N diisopropyltryptamine-4-succinate], which “Subjective effects: intensity of psychoactivity” value ([1]; oral tablet 50 mg) is on record?
A: Its value is “correlates with blood levels”.

Q: Which “Intensity of the HTR versus plasma concentration of 4-HO-DIPT” value [2] does the source give for `CC(C)N(CCc1c[nH]c2cccc(O)c12)C(C)C` [Example 4-HO-DIPT, 4-hydroxy-N,N-diisopropyltryptamine] here?
A: The value was “proportional to the plasma concentration”.

Q: With `CC(C)N(CCc1c[nH]c2cccc(OC(=O)CCCC(=O)O)c12)C(C)C` [Example 6, N,N diisopropyltryptamine-4-glutarate] as the compound, how does the solubility (Solubility in water) read?
A: The solubility was at most 50 mg/mL.

Q: And the “Percentage of remaining prodrug” value ([3]; 0 h)?
A: The value was 100%.

Q: And the “Percentage of remaining prodrug” value ([3]; 0.004 h)?
A: Its value is 0%.

Q: And the “Percentage of remaining prodrug” value ([3]; 0.5 h)?
A: The value was 0%.

Q: What about the “Percentage of remaining prodrug” value ([3]; 1 h) of the same compound?
A: Its value is 0%.

Q: What about the “Percentage of remaining prodrug” value ([3]; 2 h) of the same compound?
A: Its value is 0%.

Q: What about the “Percentage of remaining prodrug” value ([3]; 4 h) of the same compound?
A: Its value is 0%.

Q: What about the “Percentage of remaining prodrug” value ([4]; 0 h) of the same compound?
A: Its value is 100%.

Q: What about the “Percentage of remaining prodrug” value ([4]; 4 h) of the same compound?
A: Its value is 93%.

Q: And the “Time after which the patient reports no longer feeling the effects of the drug” value [5]?
A: Its value is 4 h.

Q: What about the “Subjective effects: intensity of psychoactivity” value ([1]; subcutaneous injection, 0.1-0.6 mg/kg) of the same compound?
A: The value was “correlates with blood levels”.

Q: What about the “Percentage of remaining prodrug” value ([6]; 0 h) of the same compound?
A: The value was 100%.

Q: What about the “Percentage of remaining prodrug” value ([6]; 0.004 h) of the same compound?
A: The value was 100%.

Q: What about the “Percentage of remaining prodrug” value ([6]; 0.5 h) of the same compound?
A: Its value is 3.0%.

Q: And the “Percentage of remaining prodrug” value ([6]; 1 h)?
A: The value was 0.23%.

Q: And the “Percentage of remaining prodrug” value ([6]; 2 h)?
A: Its value is 0%.

Q: And the “Percentage of remaining prodrug” value ([6]; 4 h)?
A: The value was 0%.

Q: And the “Percentage of remaining prodrug” value ([7]; 0 h)?
A: Its value is 100%.

Q: What about the “Percentage of remaining prodrug” value ([7]; 0.004 h) of the same compound?
A: The value was 0%.

Q: And the “Percentage of remaining prodrug” value ([7]; 0.5 h)?
A: Its value is 0%.

Q: And the “Percentage of remaining prodrug” value ([7]; 1 h)?
A: Its value is 0%.

Q: What about the “Percentage of remaining prodrug” value ([7]; 2 h) of the same compound?
A: Its value is 0%.

Q: And the “Percentage of remaining prodrug” value ([7]; 4 h)?
A: The value was 0%.

Q: What about the “Percentage of remaining prodrug” value ([8]; 0 h) of the same compound?
A: Its value is 100%.

Q: And the “Percentage of remaining prodrug” value ([8]; 0.004 h)?
A: The value was 100%.

Q: And the “Percentage of remaining prodrug” value ([8]; 0.5 h)?
A: Its value is 100%.

Q: What about the “Percentage of remaining prodrug” value ([8]; 1 h) of the same compound?
A: The value was 100%.

Q: And the “Percentage of remaining prodrug” value ([8]; 4 h)?
A: Its value is 101%.

Q: What about the “Percentage of remaining prodrug” value ([9]; 0 h) of the same compound?
A: The value was 100%.

Q: And the “Percentage of remaining prodrug” value ([9]; 0.004 h)?
A: Its value is 100%.

Q: What about the “Percentage of remaining prodrug” value ([9]; 0.5 h) of the same compound?
A: Its value is 87%.

Q: And the “Percentage of remaining prodrug” value ([9]; 1 h)?
A: The value was 79%.

Q: What about the “Percentage of remaining prodrug” value ([9]; 2 h) of the same compound?
A: Its value is 64%.

Q: And the “Percentage of remaining prodrug” value ([9]; 4 h)?
A: Its value is 39%.

Q: Which “Prodrug in blood samples after injection” value [10] does the source give for `CC(C)N(CCc1c[nH]c2cccc(OC(=O)CCCC(=O)O)c12)C(C)C.Cl` [Example 9, HCl salt of N,N diisopropyltryptamine-4-glutarate] here?
A: Its value is “not observed”.
